The text below walks through data of US20200361871A1 (Enterprise Therapeutics Ltd., priority 2018, published 2020).

This test addresses human TMEM16A (TMEM16Aabc variant) (Homo sapiens, UniProt Q5XXA6, DEL476-501, form not given). As to the kind of experiment: Automated whole-cell patch clamp (Qpatch) TMEM16A potentiator assay in FRT cells stably expressing human TMEM16A. To be noted: for % Potentiation @ 3.33 μM Avg: 3.33 μM solution of test compound, percentage increase of baseline TMEM16A current; for EC50: calculated EC50, Qpatch TMEM16A current at +70 mV. The class given is cell-based. The source says: FIG. 1 is an example trace from a whole-cell patch clamp (Qpatch) TMEM16A potentiator assay as used in Biological Example 95 and illustrates the methodology used in the assay. In FIG. 1: S is Saline; V is Vehicle; #1 is Test Compound concentration #1; #2 is Test Compound concentration 2; #3 is Test Compound concentration 3; #4 is Test Compound concentration 4; #5 is Test Compound concentration #5; and R is Reference. The arrow in column V represents the baseline current, IBL. The arrows in each of the columns #1, #2, #3, #4, #5 and R represent I#[1], I#[2], I#[3], I#[4], I#[5] and I[Ref], which are the peak currents during the incubation periods for test compounds concentrations #1 to #5 and the Reference.
Fisher rat thyroid (FRT) cells stably expressing human TMEM16A (TMEM16Aabc variant; Dr Luis Galietta, Insituto Giannina, Italy) were cultured in T-75 flasks in Hams F-12 media with Coon's modification (Sigma) supplemented with 10% (v/v) foetal bovine serum, penicillin-streptomycin (10,000 U/mL/10000 μg/mL), G-418 (750 μg/mL), L-glutamine (2 mM) and sodium bicarbonate solution (7.5% v/v). At ˜90% confluence cells were harvested for experiments by detachment with a 2:1 (v/v) mixture of Detachin (BMS Biotechnology) and 0.25% (w/v) trypsin-EDTA. Cells were diluted to a density of 3.5-4.5×10^6 cells/mL with media consisting of CHO-S-SFM II (Sigma), 25 mM HEPES (Sigma) and Soy bean trypsin inhibitor (Sigma).
FRT-TMEM16A cells were whole-cell patch clamped using an automated planar patch clamp system (Qpatch, Sophion). Briefly, once high resistance (GOhm) seals were established between the cells and the planar recording array the patch was ruptured using suction pulses to establish the whole-cell recording configuration of the patch clamp technique. The assay employed the following solutions (all reagents Sigma): Intracellular solution (mM): N-methyl-D-glucamine 130, CaCl2 18.2, MgCl2 1, HEPES 10, EGTA 10, BAPTA 20, Mg-ATP 2, pH 7.25, 325 mOsm with sucrose.
Extracellular solution (mM): N-methyl-D-glucamine 130, CaCl2 2, MgCl2 1, HEPES 10, pH 7.3, 320 mOsm with sucrose.
The intracellular solution buffers intracellular calcium at levels required to give ˜20% activation of the maximal TMEM16A mediated current (EC20 for calcium ions). Cells were voltage clamped at a holding potential of −70 mV and a combined voltage step (to +70 mV)/ramp (−90 my to +90 mV) was applied at 0.05 Hz. After a period of current stabilisation test compounds, solubilised in 100% (v/v) DMSO and subsequently diluted into extracellular solution, were applied to generate a cumulative concentration response curve. Each concentration of test compound was incubated for 5 minutes before addition of the next concentration. After the final concentration was tested a supramaximal concentration of either a known active positive modulator or the TMEM16A inhibitor, CaCCinhA01 (Del La Fuente et al, 2008) was added to define the upper and lower limits of the assay.
Compound activity was quantified by measuring the increase in current upon compound addition and expressing this as a percentage increase of baseline TMEM16A current level. Percentage increases in current were determined for each concentration and the data plotted as a function of concentration using either the Qpatch software or Graphpad Prism v6.05 providing the concentration which gave 50% of its maximal effect (EC50) and maximum efficacy (percentage of baseline increase).
In FIG. 1, IBL equals baseline current, I[#1] equals the peak current during test compound concentration 1 incubation period and so on.
Peak TMEM16A current at +70 mV was plotted as a function of time over the assay period. Baseline current (IBL) was measured after a period of stabilisation. The increase in current for each compound addition was determined by taking the peak current during the incubation period and subtracting the current from the previous recording period and then expressing this as a percentage of the baseline current. […]

Sequence of human TMEM16A (TMEM16Aabc variant) (Q5XXA6 with tags, fused parts or gaps DEL476-501): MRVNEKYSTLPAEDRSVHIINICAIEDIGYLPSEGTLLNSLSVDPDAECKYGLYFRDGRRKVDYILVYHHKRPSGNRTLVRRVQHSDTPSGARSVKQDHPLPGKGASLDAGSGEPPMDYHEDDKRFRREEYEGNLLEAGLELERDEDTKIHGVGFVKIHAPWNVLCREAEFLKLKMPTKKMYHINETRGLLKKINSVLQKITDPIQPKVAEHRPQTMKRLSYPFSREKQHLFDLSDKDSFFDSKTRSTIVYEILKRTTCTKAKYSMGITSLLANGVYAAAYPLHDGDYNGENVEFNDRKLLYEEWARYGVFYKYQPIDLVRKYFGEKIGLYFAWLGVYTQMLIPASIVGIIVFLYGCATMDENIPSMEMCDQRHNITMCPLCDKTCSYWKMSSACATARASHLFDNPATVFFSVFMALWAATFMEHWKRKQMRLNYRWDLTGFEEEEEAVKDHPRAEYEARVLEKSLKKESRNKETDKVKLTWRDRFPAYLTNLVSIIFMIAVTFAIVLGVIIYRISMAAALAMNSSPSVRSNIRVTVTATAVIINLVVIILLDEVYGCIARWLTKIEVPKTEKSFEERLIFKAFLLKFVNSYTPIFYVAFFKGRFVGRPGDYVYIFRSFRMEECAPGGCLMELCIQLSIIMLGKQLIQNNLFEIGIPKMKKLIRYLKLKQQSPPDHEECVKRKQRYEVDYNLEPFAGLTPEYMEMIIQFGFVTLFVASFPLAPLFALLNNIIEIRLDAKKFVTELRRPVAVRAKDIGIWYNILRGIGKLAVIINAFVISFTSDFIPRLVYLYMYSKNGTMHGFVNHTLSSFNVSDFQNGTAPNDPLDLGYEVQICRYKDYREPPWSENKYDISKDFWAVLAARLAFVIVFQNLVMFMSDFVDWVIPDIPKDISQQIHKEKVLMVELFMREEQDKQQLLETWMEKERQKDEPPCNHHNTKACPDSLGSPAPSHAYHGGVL

`CC(C)(C)NC(=O)c1cc(NC(=O)Cc2cc(Cl)ccc2F)ccn1` [Example 5.3, N-tert-Butyl-4-[[2-(5-chloro-2-fluoro-phenyl)acetyl]amino]pyridine-2-carboxamide]: the “% Potentiation @ 3.33 μM Avg” value worked out at 152% and the EC50 – broadly, the concentration giving half of the maximal effect – is 880 nM.
Consider `CC(C)(C)NC(=O)c1cc(NC(=O)C2CCc3c(Cl)ccc(O)c32)ccn1` (single isomer, unassigned) [Example 57b, N-tert-butyl-4-[[(1S) or (1R)-4-chloro-7-hydroxy-indane-1-carbonyl]amino]pyridine-2-carboxamide], for which the “% Potentiation @ 3.33 μM Avg” value is 162% and the EC50 is 670 nM.
As to `CC(C)(C)NC(=O)c1cc(NC(=O)Cc2cc(C(C)(C)C)ccc2O)ccn1` [Example 10, N-tert-Butyl-4-[[2-(5-tert-butyl-2-hydroxy-phenyl)acetyl]amino]pyridine-2-carboxamide], the “% Potentiation @ 3.33 μM Avg” value amounted to 250% and the EC50 was 220 nM.
Consider `CC(C)(C)NC(=O)c1cc(NC(=O)C2CCc3ccc(O)cc32)ccn1` (stereo not drawn) [Example 3.9b, N-tert-Butyl-4-[(6-hydroxyindane-1-carbonyl)amino]pyridine-2-carboxamide], for which the “% Potentiation @ 3.33 μM Avg” value was found to be 144% and the EC50 is 960 nM.
Turning to `CC(C)(C#N)NC(=O)c1cc(NC(=O)C2CCCCC2)ccn1` [Example 83.2, N-(1-Cyano-1-methyl-ethyl)-4-(cyclohexanecarbonylamino)pyridine-2-carboxamide], the “% Potentiation @ 3.33 μM Avg” value worked out at 41%.
`N#CC1(NC(=O)c2cc(NC(=O)Cc3ccccc3Cl)ccn2)CCCC1` [Example 30.12, 4-[[2-(2-Chlorophenyl)acetyl]amino]-N-(1-cyanocyclopentyl)pyridine-2-carboxamide]: the “% Potentiation @ 3.33 μM Avg” value is 314%.
On to `O=C(Cc1cc(Cl)ccc1O)Nc1cccc(C(=O)NC2(CO)CCOC2)c1` (stereo not drawn) [Example 74.1, 3-[[2-(5-Chloro-2-hydroxy-phenyl)acetyl]amino]-N-[3-(hydroxymethyl)tetra hydrofuran-3-yl]benzamide], for which the “% Potentiation @ 3.33 μM Avg” value came to 49%.
Turning to `O=C(Cc1cc(Cl)ccc1O)Nc1ccnc(C(=O)NCc2cccnc2)c1` [Example 32.2, 4-[[2-(5-Chloro-2-hydroxy-phenyl)acetyl]amino]-N-(3-pyridylmethyl)pyridine-2-carboxamide], the “% Potentiation @ 3.33 μM Avg” value turned out to be 183% and the EC50 was 340 nM.
As for `C[C@H](NC(=O)Nc1ccnc(C(=O)NC(C)(C)C)c1)c1ccccc1` [Example 64.4, N-tert-Butyl-4-[[(1S)-1-phenylethyl]carbamoylamino]pyridine-2-carboxamide], the “% Potentiation @ 3.33 μM Avg” value amounted to 2%.
With `CC(C)(C)NC(=O)c1cccc(NC(=O)Cc2c(O)cccc2F)c1` [Example 2.15, N-tert-Butyl-3-[[2-(2-fluoro-6-hydroxy-phenyl)acetyl]amino]benzamide], the “% Potentiation @ 3.33 μM Avg” value worked out at 163% and the EC50 is 490 nM.
Regarding `CC(C)(C#N)NC(=O)c1cc(NC(=O)c2cccc3ncsc23)ccn1` [Example 83.30, N-[2-[(1-Cyano-1-methyl-ethyl)carbamoyl]-4-pyridyl]-1,3-benzothiazole-7-carboxamide], the “% Potentiation @ 3.33 μM Avg” value was found to be 93%.
As to `CC(C#N)(CO)NC(=O)c1cc(NC(=O)Cc2cc(F)ccc2O)ccn1` (stereo not drawn) [Example 81.1, N-(1-Cyano-2-hydroxy-1-methyl-ethyl)-4-[[2-(5-fluoro-2-hydroxy-phenyl)acetyl]amino] pyridine-2-carboxamide], the “% Potentiation @ 3.33 μM Avg” value stood at 108%.
For the compound `CC(C)(C)NC(=O)c1cccc(NC(=O)Cc2cccc(O)c2O)c1` [Example 2.16, N-tert-Butyl-3-[[2-(2,3-dihydroxyphenyl)acetyl]amino]benzamide], the “% Potentiation @ 3.33 μM Avg” value is 60% and the EC50 is 4270 nM.
With `CC(C)Cc1cc(C(=O)Nc2ccnc(C(=O)NC(C)(C)C#N)c2)on1` [Example 83.9, N-[2-[(1-Cyano-1-methyl-ethyl)carbamoyl]-4-pyridyl]-3-isobutyl-isoxazole-5-carboxamide], the “% Potentiation @ 3.33 μM Avg” value is 18%.
With `Cc1[nH]c2c(F)cccc2c1CC(=O)Nc1cccc(C(=O)NC(C)(C)C)c1` [Example 4.4, N-tert-Butyl-3-[[2-(7-fluoro-2-methyl-1H-indol-3-yl)acetyl]amino]benzamide], the “% Potentiation @ 3.33 μM Avg” value was 61% and the EC50 is 4190 nM.
The matching figures for `CCOC(=O)CC(C)(C)NC(=O)c1cc(NC(=O)Cc2cc(Cl)ccc2O)ccn1` [Example 35.13, ethyl 3-[[4-[[2-(5-chloro-2-hydroxy-phenyl)acetyl]amino]pyridine-2-carbonyl]amino]-3-methyl-butanoate]: 191% and 350 nM.
Turning to `CC(C)(C)NC(=O)c1cc(NC(=O)Cc2cc(Cl)c(CN3CCOCC3)cc2O)ccn1` [Example 27.2, N-tert-Butyl-4-[[2-[5-chloro-2-hydroxy-4-(morpholinomethyl)phenyl]acetyl]amino]pyridine-2-carboxamide], the “% Potentiation @ 3.33 μM Avg” value is given as 300%.
For `O=C(Cc1ccccc1Cl)Nc1ccnc(C(=O)NC23CC(F)(C2)C3)c1` [Example 30.9, 4-[[2-(2-Chlorophenyl)acetyl]amino]-N-(3-fluoro-1-bicyclo[1.1.1]pentanyl)pyridine-2-carboxamide], the “% Potentiation @ 3.33 μM Avg” value came out at 100% and the EC50 was 470 nM.
Take `N#CC1(NC(=O)c2cc(NC(=O)Cc3cc(F)ccc3Cl)ccn2)CC1` [Example 23.2, 4-[[2-(2-Chloro-5-fluoro-phenyl)acetyl]amino]-N-(1-cyanocyclopropyl)pyridine-2-carboxamide]: the “% Potentiation @ 3.33 μM Avg” value is 87%.
As for `C#CC(C)(C)NC(=O)c1cc(NC(=O)Cc2ccccc2F)ccn1` [Example 60.2, N-(1,1-Dimethylprop-2-ynyl)-4-[[2-(2-fluorophenyl)acetyl]amino]pyridine-2-carboxamide], the “% Potentiation @ 3.33 μM Avg” value is 169% and the EC50 was 200 nM.
Take `CC(C)(CCNS(C)(=O)=O)NC(=O)c1cc(NC(=O)Cc2cc(Cl)ccc2O)ccn1` [Example 50, 4-[[2-(5-Chloro-2-hydroxy-phenyl)acetyl]amino]-N-[3-(methanesulfonamido)-1,1-dimethyl-propyl]pyridine-2-carboxamide]: the “% Potentiation @ 3.33 μM Avg” value came out at 65%.
`CC(C)(C)NC(=O)c1cc(NC(=O)NCc2cccc(Cl)c2)ccn1` [Example 64.7, N-tert-Butyl-4-[(3-chlorophenyl)methylcarbamoylamino]pyridine-2-carboxamide]: the “% Potentiation @ 3.33 μM Avg” value amounted to 83%.
On to `COCC(C)(CO)NC(=O)c1cc(NC(=O)Cc2cc(Cl)ccc2O)ccn1` (stereo not drawn) [Example 73, 4-[[2-(5-Chloro-2-hydroxy-phenyl)acetyl]amino]-N-[1-(hydroxymethyl)-2-methoxy-1-methyl-ethyl]pyridine-2-carboxamide], for which the “% Potentiation @ 3.33 μM Avg” value was found to be 196% and the EC50 was 310 nM.
Turning to `C#CC(C)(C)NC(=O)c1cc(NC(=O)CC2CCOc3ccccc32)ccn1` (stereo not drawn) [Example 79, 4-[(2-Chroman-4-ylacetyl)amino]-N-(1,1-dimethylprop-2-ynyl)pyridine-2-carboxamide], the “% Potentiation @ 3.33 μM Avg” value is 60%.
